Consider 17 molecules from patent US20140005163A1 (NOVARTIS AG, priority 2010, published 2014).

One series can be described thus: Solubility at pH 6.8. The format is physicochemical. Conditions: pH 6.8, aqueous buffer, thermodynamic from solid; read-out: solubility. The gist of the method:
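Following the procedure of Zhou et al. (2007), compound solubility was determined at pH 6.8.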

The next series concerns the target T1, PI3K beta (Homo sapiens, UniProt P42338).
T1 construct: for the full-length p110-b subunit are generated and fused by overlapping PCR; p85(iSH2) fusion partner (see partner chain) (N); His tag (C); made in house; host or cells: baculovirus; Tn5 (Trichoplusia ni) or TiniPro insect cells
The series can be described thus: PI3K beta kinase assay (Kinase-Glo luminescence). The series is classed as biochemical. The gist of the method: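 Kinase-Glo luminescence after a 60 min room-temperature reaction gives remaining ATP. The reaction holds 25 nM p85(iSH2)-p110β full-length His-tagged construct, 1 μM ATP, 10 μg/mL PI, and eight compound concentrations at 0.45% DMSO final. IC50 values come from a four-parameter logistic fit.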

The target in the next series is T2, PI3K delta (Homo sapiens, UniProt O00329).
T2 construct: for the full-length p110-d subunit are generated and fused by overlapping PCR; p85(iSH2) fusion partner (see partner chain) (N); His tag (C); made in house; host or cells: baculovirus; Tn5 (Trichoplusia ni) or TiniPro insect cells
The experiment in a line: PI3K delta kinase assay (Kinase-Glo luminescence). The series is classed as biochemical. A digest of the protocol:
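Kinase-Glo luminescence read-out of ATP remaining after 60 min at RT. Enzyme: 10 nM BV1060 (p85 iSH2–p110δ fusion, His-tagged); substrate 10 μg/mL PI, ATP 1 μM final; Tris pH 7.5 buffer with MgCl2, NaCl, CHAPS, DTT. IC50 from 4-parameter logistic fit over 8 concentrations.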

The subject of series [1] is PKB Ser473 phosphorylation in Rat1-myr-HA-p110 beta cells. The experiment in a line: Reverse protein array assay, PKB Ser473 phosphorylation in Rat1-myr-p110 beta cells. To be noted: 0.5 h, pAkt Ser473, 30 minutes incubation, read-out: p-PKB IC50. The format is cell-based. The gist of the method:
(§1)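 After at least 20 h of culture, the p110 isoform-transfected Rat1 lines receive compound in an 8-step dilution series, keeping DMSO at 0.2%, for 30 minutes. Cells are then lysed and lysates arrayed on chips for fluorescence detection of Ser473-phosphorylated PKB.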

The test system of series [2] is PKB Ser473 phosphorylation in Rat1-myr-HA-p110 delta cells. The series can be described thus: Reverse protein array assay, PKB Ser473 phosphorylation in Rat1-myr-p110 delta cells. To be noted: read-out: p-PKB IC50. The series is classed as cell-based. The gist of the method:
as §1

Converted amounts (≈) assume the structure as drawn. Where only a bound is given, the exact number is not on record here.

T1 sequence (P42338 with tags, fused parts or gaps limits assumed): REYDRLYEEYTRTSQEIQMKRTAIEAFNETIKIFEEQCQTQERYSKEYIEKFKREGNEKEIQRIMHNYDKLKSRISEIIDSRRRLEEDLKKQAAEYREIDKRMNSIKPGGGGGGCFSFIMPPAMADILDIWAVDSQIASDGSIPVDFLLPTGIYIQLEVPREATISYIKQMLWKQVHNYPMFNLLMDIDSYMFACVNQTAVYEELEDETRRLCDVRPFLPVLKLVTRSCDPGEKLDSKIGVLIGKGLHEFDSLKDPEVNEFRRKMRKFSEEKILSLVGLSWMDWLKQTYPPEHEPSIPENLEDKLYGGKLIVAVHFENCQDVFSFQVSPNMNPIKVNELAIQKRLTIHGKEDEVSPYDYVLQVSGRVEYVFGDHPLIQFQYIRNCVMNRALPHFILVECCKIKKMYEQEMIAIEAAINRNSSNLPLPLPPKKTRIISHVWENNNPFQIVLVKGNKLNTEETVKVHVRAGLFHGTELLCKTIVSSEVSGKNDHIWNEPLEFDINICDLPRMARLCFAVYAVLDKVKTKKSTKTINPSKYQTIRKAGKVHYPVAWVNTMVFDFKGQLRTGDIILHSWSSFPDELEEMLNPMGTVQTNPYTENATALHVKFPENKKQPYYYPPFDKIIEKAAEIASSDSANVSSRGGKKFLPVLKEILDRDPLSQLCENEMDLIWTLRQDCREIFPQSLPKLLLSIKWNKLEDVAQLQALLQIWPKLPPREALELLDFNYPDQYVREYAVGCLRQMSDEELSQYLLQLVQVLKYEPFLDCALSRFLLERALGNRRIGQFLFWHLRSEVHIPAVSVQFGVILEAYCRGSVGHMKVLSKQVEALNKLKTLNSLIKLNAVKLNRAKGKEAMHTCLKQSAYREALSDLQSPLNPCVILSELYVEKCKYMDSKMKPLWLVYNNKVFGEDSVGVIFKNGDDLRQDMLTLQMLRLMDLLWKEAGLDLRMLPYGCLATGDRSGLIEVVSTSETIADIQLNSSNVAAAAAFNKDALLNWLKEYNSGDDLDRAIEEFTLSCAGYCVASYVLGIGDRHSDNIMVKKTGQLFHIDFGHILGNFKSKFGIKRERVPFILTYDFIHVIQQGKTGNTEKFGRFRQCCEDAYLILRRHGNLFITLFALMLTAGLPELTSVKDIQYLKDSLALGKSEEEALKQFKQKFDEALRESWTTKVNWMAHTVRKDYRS
T2 sequence (O00329 with tags, fused parts or gaps limits assumed): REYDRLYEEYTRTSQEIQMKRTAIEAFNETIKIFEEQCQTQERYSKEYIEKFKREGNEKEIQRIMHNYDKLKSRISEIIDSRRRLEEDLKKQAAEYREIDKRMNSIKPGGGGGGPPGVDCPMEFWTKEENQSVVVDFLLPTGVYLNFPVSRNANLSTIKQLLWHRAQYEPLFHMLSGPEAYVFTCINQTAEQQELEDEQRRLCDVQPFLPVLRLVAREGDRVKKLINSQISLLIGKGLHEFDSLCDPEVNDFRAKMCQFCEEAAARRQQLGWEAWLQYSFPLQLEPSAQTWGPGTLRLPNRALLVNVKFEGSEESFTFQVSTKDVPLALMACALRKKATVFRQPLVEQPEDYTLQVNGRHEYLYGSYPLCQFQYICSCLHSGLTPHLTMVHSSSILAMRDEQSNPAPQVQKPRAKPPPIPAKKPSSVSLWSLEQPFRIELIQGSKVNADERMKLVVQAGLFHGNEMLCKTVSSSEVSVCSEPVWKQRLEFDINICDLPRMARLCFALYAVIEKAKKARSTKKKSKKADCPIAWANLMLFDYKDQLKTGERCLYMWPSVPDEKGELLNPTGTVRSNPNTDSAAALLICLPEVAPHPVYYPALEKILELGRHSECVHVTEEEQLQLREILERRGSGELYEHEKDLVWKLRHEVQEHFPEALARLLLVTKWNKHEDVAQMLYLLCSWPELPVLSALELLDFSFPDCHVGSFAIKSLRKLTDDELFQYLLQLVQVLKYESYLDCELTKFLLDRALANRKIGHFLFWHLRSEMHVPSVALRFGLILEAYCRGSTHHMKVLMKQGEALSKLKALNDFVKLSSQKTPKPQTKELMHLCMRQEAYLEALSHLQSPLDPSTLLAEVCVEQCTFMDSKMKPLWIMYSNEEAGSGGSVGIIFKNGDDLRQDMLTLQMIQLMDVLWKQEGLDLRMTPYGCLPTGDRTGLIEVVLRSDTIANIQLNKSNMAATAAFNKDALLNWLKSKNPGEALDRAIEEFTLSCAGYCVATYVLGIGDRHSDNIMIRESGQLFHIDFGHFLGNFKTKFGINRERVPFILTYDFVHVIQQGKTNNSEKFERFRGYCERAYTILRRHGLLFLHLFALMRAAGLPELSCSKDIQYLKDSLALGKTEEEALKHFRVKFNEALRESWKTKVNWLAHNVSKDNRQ

`CNC(=O)c1cc(-c2ccc3ncc4c(c3c2)n(-c2cn(C)nc2C)c(=O)n4C)cnc1N` [Example 224.1, 2-Amino-5-[1-(1,3-dimethyl-1H-pyrazol-4-yl)-3-methyl-2-oxo-2,3-dihydro-1H-imidazo[4,5-c]quinolin-8-yl]-N-methyl-nicotinamide]: the solubility in the series “Solubility at pH 6.8” was determined as 5 µg/mL (≈ 11.3 µM). For the same molecule, the half-inhibitory concentration (IC50) on PI3K beta was found to be 62 nM; on PI3K delta, 29 nM; in series [1], 59 nM; in series [2], 154 nM.
`Cc1nn(CC(=O)N2CCC2)cc1-n1c(=O)n(C)c2cnc3ccc(-c4cncc(OC(C)C)c4)cc3c21` [Example 205, 1-[1-(2-Azetidin-1-yl-2-oxo-ethyl)-3-methyl-1H-pyrazol-4-yl]-8-(5-isopropoxy-pyridin-3-yl)-3-methyl-1,3-dihydro-imidazo[4,5-c]quinolin-2-one]: the solubility in “Solubility at pH 6.8” is more than 512 µg/mL. The IC50 on PI3K beta is 17 nM; on PI3K delta, 12 nM; in series [1], 266 nM; in series [2], 772 nM.
For the molecule `CCOc1cc(-c2ccc3ncc4c(c3c2)n(-c2cn(CCO)nc2C)c(=O)n4C)cnc1C` [Example 211.2, 8-(5-Ethoxy-6-methyl-pyridin-3-yl)-1-[1-(2-hydroxy-ethyl)-3-methyl-1H-pyrazol-4-yl]-3-methyl-1,3-dihydro-imidazo[4,5-c]quinolin-2-one], the solubility in “Solubility at pH 6.8” worked out at 3 µg/mL (≈ 6.54 µM). The IC50 on PI3K beta came out at 17 nM; at PI3K delta it was 9 nM; in series [1], 38 nM; in series [2] it was 105 nM.
On the same counts, the results for `CNC(=O)c1ccc(-c2ccc3ncc4c(c3c2)n(-c2cn(C)nc2C)c(=O)n4C)cn1` [Example 15.1, 5-[1-(1,3-Dimethyl-1H-pyrazol-4-yl)-3-methyl-2-oxo-2,3-dihydro-1H-imidazo[4,5-c]quinolin-8-yl]-pyridine-2-carboxylic acid methylamide] are 10 µg/mL (≈ 23.4 µM), 255 nM, 257 nM, 21 nM and 91 nM.
Take `CCn1cc(-n2c(=O)n(C)c3cnc4ccc(-c5cnc(F)c(NC)c5)cc4c32)c(C)n1` [Example 150.1, 1-(1-Ethyl-3-methyl-1H-pyrazol-4-yl)-8-(6-fluoro-5-methylamino-pyridin-3-yl)-3-methyl-1,3-dihydro-imidazo[4,5-c]quinolin-2-one]: in “Solubility at pH 6.8”, the solubility came out at 5 µg/mL (≈ 11.6 µM). For the same molecule, the IC50 came out at 17 nM on PI3K beta, 8 nM at PI3K delta, 11 nM in series [1] and 21 nM in series [2].
With `Cn1cc(-n2c(=O)n(C)c3cnc4ccc(-c5cnc(N)c(CO)c5)cc4c32)c(Cl)n1` [Example 169.3, 8-(6-Amino-5-hydroxymethyl-pyridin-3-yl)-1-(3-chloro-1-methyl-1H-pyrazol-4-yl)-3-methyl-1,3-dihydro-imidazo[4,5-c]quinolin-2-one], the solubility in the series “Solubility at pH 6.8” came out at 10 µg/mL (≈ 22.9 µM). Moreover, the IC50 is 7 nM on PI3K beta, less than 3 nM on PI3K delta, 24 nM in series [1] and 41 nM in series [2].
In the case of `Cc1nn(C)c(C)c1-n1c(=O)n(C)c2cnc3ccc(-c4cccc(O)c4)cc3c21` [Example 32.2, 8-(3-Hydroxy-phenyl)-3-methyl-1-(1,3,5-trimethyl-1H-pyrazol-4-yl)-1,3-dihydro-imidazo[4,5-c]quinolin-2-one], the solubility in the series “Solubility at pH 6.8” turned out to be 194 µg/mL (≈ 486 µM). The IC50 at PI3K beta is 165 nM; at PI3K delta, 38 nM; in series [1] it was 725 nM; in series [2], 366 nM.
As for `Cc1nn(C)cc1-n1c(=O)n(C)c2cnc3ccc(-c4cncc(OCC5CC5)c4)cc3c21` [Example 61, 8-(5-Cyclopropylmethoxy-pyridin-3-yl)-1-(1,3-dimethyl-1H-pyrazol-4-yl)-3-methyl-1,3-dihydro-imidazo[4,5-c]quinolin-2-one], the solubility in “Solubility at pH 6.8” was found to be 8 µg/mL (≈ 18.2 µM). Also, the IC50 at PI3K beta was determined as 25 nM; at PI3K delta, 17 nM; in series [1], 28 nM; in series [2] it was 246 nM.
Turning to `Cc1nn(C)c(C)c1-n1c(=O)n(C)c2cnc3ccc(-c4cnc(N)nc4)cc3c21` [Example 81.2, 8-(2-Amino-pyrimidin-5-yl)-3-methyl-1-(1,3,5-trimethyl-1H-pyrazol-4-yl)-1,3-dihydro-imidazo[4,5-c]quinolin-2-one], the solubility in “Solubility at pH 6.8” is 133 µg/mL (≈ 332 µM). In addition, the IC50 came out at 281 nM at PI3K beta, 30 nM on PI3K delta, 295 nM in series [1] and 382 nM in series [2].
Consider `CCOc1ccc(-c2ccc3ncc4c(c3c2)n(-c2cn(CC(=O)N3CCC3)nc2C)c(=O)n4C)cn1` [Example 138, 1-[1-(2-Azetidin-1-yl-2-oxo-ethyl)-3-methyl-1H-pyrazol-4-yl]-8-(6-ethoxy-pyridin-3-yl)-3-methyl-1,3-dihydro-imidazo[4,5-c]quinolin-2-one], for which, in the series “Solubility at pH 6.8”, the solubility turned out to be 26 µg/mL (≈ 52.3 µM). Further, the IC50 at PI3K beta worked out at 377 nM; on PI3K delta, 42 nM; in series [1] it was 38 nM; in series [2] it was 58 nM.
On the same counts, the results for `Cc1nn(C)cc1-n1c(=O)n(C)c2cnc3ccc(-c4cnc(N(C)C)nc4)cc3c21` [Example 6.2, 8-(2-Dimethylamino-pyrimidin-5-yl)-1-(1,3-dimethyl-1H-pyrazol-4-yl)-3-methyl-1,3-dihydro-imidazo[4,5-c]quinolin-2-one] are 41 µg/mL (≈ 98.9 µM), 185 nM, 32 nM, 47 nM and 76 nM.
The corresponding values for `Cc1nn(C)cc1-n1c(=O)[nH]c2cnc3ccc(-c4cnc(N(C)C)nc4)cc3c21` [Example 207, 8-(2-Dimethylamino-pyrimidin-5-yl)-1-(1,3-dimethyl-1H-pyrazol-4-yl)-1,3-dihydro-imidazo[4,5-c]quinolin-2-one] are 18 µg/mL (≈ 44.9 µM), 167 nM, 29 nM, 63 nM and 238 nM.
Turning to `CCn1cc(-n2c(=O)n(C)c3cnc4ccc(-c5cncc(C(C)(C)O)c5)cc4c32)c(C)n1` [Example 215.4, 1-(1-Ethyl-3-methyl-1H-pyrazol-4-yl)-8-[5-(1-hydroxy-1-methyl-ethyl)-pyridin-3-yl]-3-methyl-1,3-dihydro-imidazo[4,5-c]quinolin-2-one], the solubility in the series “Solubility at pH 6.8” was more than 443 µg/mL. Moreover, the IC50 on PI3K beta worked out at 12 nM; on PI3K delta, 10 nM; in series [1] it was 136 nM; in series [2] it was 115 nM.
On the same counts, the results for `Cc1nn(C(C)C)cc1-n1c(=O)n(C)c2cnc3ccc(-c4ccc(N)nc4)cc3c21` [Example 23.2, 8-(6-Amino-pyridin-3-yl)-1-(1-isopropyl-3-methyl-1H-pyrazol-4-yl)-3-methyl-1,3-dihydro-imidazo[4,5-c]quinolin-2-one] are 45 µg/mL (≈ 109 µM), 197 nM, 43 nM, 6 nM and 18 nM.
In the case of `CNc1ncc(-c2ccc3ncc4c(c3c2)n(-c2cn(C)nc2C)c(=O)n4C)cc1C(F)(F)F` [Example 144.3, 1-(1,3-Dimethyl-1H-pyrazol-4-yl)-3-methyl-8-(6-methylamino-5-trifluoromethyl-pyridin-3-yl)-1,3-dihydro-imidazo[4,5-c]quinolin-2-one], the solubility in the series “Solubility at pH 6.8” came out at 44 µg/mL (≈ 94.1 µM). Further, the IC50 at PI3K beta is 16 nM; on PI3K delta it was 9 nM; in series [1] it was less than 5 nM; in series [2], 11 nM.
The corresponding values for `CCOc1ncc(-c2ccc3ncc4c(c3c2)n(-c2cn(C)nc2C)c(=O)n4C)cn1` [Example 52, 1-(1,3-Dimethyl-1H-pyrazol-4-yl)-8-(2-ethoxy-pyrimidin-5-yl)-3-methyl-1,3-dihydro-imidazo[4,5-c]quinolin-2-one] are 11 µg/mL (≈ 26.5 µM), 343 nM, 37 nM, 9 nM and 96 nM.
Consider `Cc1nn(C)cc1-n1c(=O)n(C)c2cnc3ccc(-c4ccc(N)nc4)cc3c21` [Example 23.1, 8-(6-Amino-pyridin-3-yl)-1-(1,3-dimethyl-1H-pyrazol-4-yl)-3-methyl-1,3-dihydro-imidazo[4,5-c]quinolin-2-one], for which, in “Solubility at pH 6.8”, the solubility came out at 16 µg/mL (≈ 41.5 µM). In addition, the IC50 on PI3K beta was 41 nM; at PI3K delta, 15 nM; in series [1] it was 7 nM; in series [2], 26 nM.
